Test results taken from patent US20090047221A1 (NIPRI LIMITED, priority 2004, published 2009).

Experiments:
Type in all cases: cell-based
[1] = tested on: breast cancer (MDA-MB-468 and MCF-7 cell lines) and melanoma cell lines (MalMe3, SkMe128); experiment: Cell cycle analysis by flow cytometry (propidium iodide); apoptosis as cells in sub G0/G1 (pre G0) peak; details: following treatment with IC70 concentration of compound
Description: Assessment of cell cycle analysis was performed using propidium iodide staining of cells and subsequent analysis on a Beckton Dickinson flow cytometer. […] The following day the medium was removed and replaced with 5 ml medium per flask containing the appropriate drug concentrations to be tested. 40 mg/ml stock drug solutions in DMSO were stores at −20° C. and on the day off drug treatment working solutions of 4 mg/ml were prepared in medium from which the final drug dilutions were prepared. Cells were maintained in an incubator (37° C., 5% CO2) for up to 96 h post treatment. After 24, 48, 72 or 96 h time points the medium from each flask was collected, stored on ice, and the remaining cells in the flasks were trypsinised by aiding 1 ml trypsin-EDTA solution to each flask. Cells were replaced into the incubator for 10 min to allow them to detach from the plastic plate. The cells in each flask were collected by adding the appropriate medium removed from each flask back to the corresponding flask and then placing medium containing both the attached and floating cells into a 15 ml tube. Cells were centrifuged at 4° C. for 5 min at 1500 rpm and the supernatant removed from each tube. The remaining cells were washed twice in ice cold PBS and then fixed in ice cold methanol overnight at −20° C. On the day of analysis of cells each tube was centrifuged at 4° C. for 5 min at 1500 rpm and the methanol removed and the cells washed twice in ice cold PBS. 20 μl propidium iodide solution (1 mg/ml) and 20 μl RNase A (10 mg/ml solution) were added to 1 ml PBS per tube and the cells were incubated for 30 min at 37° C. Cells were analysed on the flow cytometer and cell cycle changes were assessed.

MalMe3M = experiment: MTT assay (anti-proliferative activity); details: 96 h continual exposure, read-out: IC 50 MalMe3M
MDA-MB-468 = experiment: MTT assay (anti-proliferative activity); details: 96 h continual exposure, read-out: IC 50 MDA-MB-468
MCF-7 = experiment: MTT assay (anti-proliferative activity); details: 96 h continual exposure, read-out: IC 50 MCF-7
SkMel28 = experiment: MTT assay (anti-proliferative activity); details: 96 h continual exposure, read-out: IC 50 SkMel28
RKO = experiment: MTT assay (anti-proliferative activity)
From the text: (§1) The MTT assay was used initially to determine the anti-proliferative activity of the test compounds. In the MTT assay a yellow thiazolyl blue tetrazolium bromide salt (MTT) is reduced, in metabolically active cells, to form insoluble purple formazan crystals which are solubilised by the addition of dimethyl sulphoxide (DMSO). Absorbance readings can then be determined spectrophotometrically and a relationship established between control untreated cells and drug treated cells enabling the quantification of anti-proliferative changes as a result of drug treatment (Mosmann, 1983).
(§2) Wells containing medium only were used as blanks. Following the attachment period, cells were treated with appropriate drug concentrations (20 μl added per well). 40 mg/ml stock drug solutions, in DMSO, were stored at −20° C. and on the day of drug treatment working solutions of 4 mg/ml were prepared in medium which was further diluted to achieve final drug dilution volumes of 20 μl. Initial screening was determined over a concentration range of 1-200 μg/ml. For potent compounds the assay was repeated over a narrower concentration range to determine accurate IC50 values. Cells were exposed to drug for 96 h continual exposure (37° C., 5% CO2). Following the 96 h incubation, 50 μl MTT solution (1 g MTT/500 ml PBS) was added per well and the plates were further incubated for 4 h (37° C., 5% CO2). After incubation the MTT and medium was removed from the wells and 100 μl DMSO added per well. Plates were agitated on an orbital mixer platform (Stuart Scientific) for 10 minutes. Absorbance was measured at 570 nm on a Biotrak II (Amersham Bioscience) plate reader. IC50 values were calculated comparing control and drug treated cells.

LNCAP = experiment: MTT assay (anti-proliferative activity)
From the text: as §1, §2

HCT−/− = experiment: MTT assay (anti-proliferative activity)
From the text: as §1, §2

H23 = experiment: MTT assay (anti-proliferative activity)
From the text: as §1, §2

PC3 = experiment: MTT assay (anti-proliferative activity)
From the text: as §1, §2

ZR-75-1 = experiment: MTT assay (anti-proliferative activity)
From the text: as §1, §2

PNT2 = experiment: MTT assay (anti-proliferative activity)
From the text: as §1, §2

HT29 = experiment: MTT assay (anti-proliferative activity)
From the text: as §1, §2

HCT+/+ = experiment: MTT assay (anti-proliferative activity)
From the text: as §1, §2

| Compound | % Cells in Pre G0 phase of Cell Cycle [1] [%] | IC50 (MalMe3M) [µM] | IC50 (MDA-MB-468) [µM] | IC50 (MCF-7) [µM] | IC50 (SkMel28) [µM] | IC50 (RKO) [µM] | IC50 (LNCAP) [µM] | IC50 (HCT−/−) [µM] | IC50 (H23) [nM] | IC50 (PC3) [µM] | IC50 (ZR-75-1) [µM] | IC50 (PNT2) [µM] | IC50 (HT29) [µM] | IC50 (HCT+/+) [µM] |
| --- | --- | --- | --- | --- | --- | --- | --- | --- | --- | --- | --- | --- | --- | --- |
| CC(C)CC(NC(=O)c1ccc2c(c1O)C(=O)OC(C)C2)C(=O)OC(C)(C)C (mixture of isomers) [ALM-55, Leucine Tert-Butyl Ester Amide] | 3.4 | 22.9 | 12.8 | 43.4 | 79.2 | – | – | – | – | – | – | – | – | – |
| CCCCC/C=C\C/C=C\C/C=C\CCCCCOC(=O)c1ccc2c(c1O)C(=O)OC(C)C2 (racemic) [ALM-43, γ-Linolenyl Ester] | 11.8 | 23.5 | 4.3 | 2.3 | 21.3 | 10.7 | 10.7 | 42.7 | 2100 | 9.6 | 6.4 | 5.3 | 18.7 | 21.3 |
| CCCCCCNC(=O)c1ccc2c(c1O)C(=O)OC(C)C2 (racemic) [ALM-49, Hexyl Amide] | 14.1 | 65.5 | 3.3 | 26.2 | 105 | – | – | – | – | – | – | – | – | – |
| CC1(C)Cc2ccc(C(=O)N[C@@H](Cc3ccccc3)C(=O)O)c(O)c2C(=O)O1 [ALM-74, L-Phenyl Alanine Amide of Compound ALM-73] | 34.4 | 7.8 | 1.83 | 2.21 | 11.7 | – | – | – | – | – | – | – | – | – |
